Key:
Experiment in all cases: relative viability (nuclei count vs DMSO), 5 days (fraction); higher = more cells survive
[1] = compound: C1=CC=C2C(=C1)C=CC(=C2SSC3=C(C=CC4=CC=CC=C43)O)O [IPA-3] + Cc1cc(Nc2cc(N3CCN(C)CC3)nc(Sc3ccc(NC(=O)C4CC4)cc3)n2)n[nH]1 [Tozasertib] (partner 0.1 µM)
Outline: (§1)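 Lung cancer cell lines, seeded in 1536-well plates, were treated the following day by pin tool with a single drug or with five library-drug doses (not always all listed) in √10 steps on top of a fixed anchor-drug dose. Cells were fixed and nuclei stained in one step after 5 days, and nuclei were counted. Relative viability is the nuclei count for treated wells divided by that for vehicle wells, reported as medians of duplicate plates.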

[2] = compound: Cn1c(Nc2ccc(C(F)(F)F)cc2)nc2cc(Oc3ccnc(-c4ncc(C(F)(F)F)[nH]4)c3)ccc21 [RAF265] + O=C(c1cc(Cc2n[nH]c(=O)c3ccccc23)ccc1F)N1CCN(C(=O)C2CC2)CC1 [Olaparib] (partner 8 µM)
Outline: as §1

[3] = compound: Cn1c(Nc2ccc(C(F)(F)F)cc2)nc2cc(Oc3ccnc(-c4ncc(C(F)(F)F)[nH]4)c3)ccc21 [RAF265] + CS(=O)(=O)N1CCN(Cc2cc3nc(-c4cccc5[nH]ncc45)nc(N4CCOCC4)c3s2)CC1 [Pictilisib] (partner 1 µM)
Outline: as §1

[4] = compound: Cn1c(Nc2ccc(C(F)(F)F)cc2)nc2cc(Oc3ccnc(-c4ncc(C(F)(F)F)[nH]4)c3)ccc21 [RAF265] + CC(C)C[C@H](NC(=O)[C@H](Cc1ccccc1)NC(=O)c1cnccn1)B(O)O [Bortezomib] (partner 0.002 µM)
Outline: as §1

Cell Line	relative viability ([1]; first compound 0.2 µM)	relative viability ([1]; first compound 0.6325 µM)	relative viability ([1]; first compound 2 µM)	relative viability ([1]; first compound 6.325 µM)	relative viability ([1]; first compound 20 µM)	relative viability ([2]; first compound 0.01 µM)	relative viability ([2]; first compound 0.03162 µM)	relative viability ([2]; first compound 0.1 µM)	relative viability ([2]; first compound 0.3162 µM)	relative viability ([2]; first compound 1 µM)	relative viability ([3]; first compound 0.01 µM)	relative viability ([3]; first compound 0.03162 µM)	relative viability ([3]; first compound 0.1 µM)	relative viability ([3]; first compound 0.3162 µM)	relative viability ([3]; first compound 1 µM)	relative viability ([4]; first compound 0.01 µM)	relative viability ([4]; first compound 0.03162 µM)	relative viability ([4]; first compound 0.1 µM)	relative viability ([4]; first compound 0.3162 µM)	relative viability ([4]; first compound 1 µM)
NCI-H727	0.659	0.615	0.828	0.529	0.568	0.701	0.685	0.708	0.593	0.547	0.546	0.302	0.325	0.252	0.22	0.855	0.783	0.908	0.796	0.456
HARA	0.133	0.132	0.153	0.485	0.118	0.859	0.871	0.812	0.65	0.438	0.367	0.267	0.271	0.287	0.134	1.12	1.1	1.1	0.809	0.801
NCI-H2228	0.245	0.255	0.29	0.301	0.294	0.915	0.691	0.726	0.291	0.246	0.539	0.371	0.465	0.208	0.255	0.968	0.82	0.887	0.412	0.42
LCLC-97TM1	0.255	0.178	0.259	0.216	0.189	0.363	0.299	0.237	0.22	0.109	0.177	0.172	0.112	0.145	0.107	0.253	0.671	0.492	0.181	0.238
LC-2-ad	0.48	0.467	0.531	0.424	0.458	0.696	0.769	0.921	0.904	0.636	0.441	0.361	0.223	0.171	0.0927	0.959	0.998	0.927	0.668	0.452
SK-LU-1	0.328	0.36	0.338	0.339	0.302	0.511	0.386	0.419	0.283	0.265	0.688	0.422	0.41	0.297	0.27	1.18	1.08	1.09	0.453	0.512
EKVX	0.463	0.42	0.447	0.375	0.422	0.806	0.866	0.966	0.646	0.653	0.425	0.414	0.429	0.242	0.334	0.99	0.995	1.04	0.513	0.763
HCC-827	0.446	0.423	0.402	0.442	0.438	0.727	0.7	0.794		0.512	0.99	1.04	1.05		0.571	1.1	1.08	1.08		0.869
NCI-H650	0.823	0.694	0.786	0.703	0.831	0.384	0.383	0.376	0.324	0.174	0.805	0.94	0.766	0.698	0.466	0.836	0.781	0.793	0.539	0.32
CAL-12T	0.371	0.301	0.384	0.343	0.297	0.84	0.645	0.677	0.592	0.593	0.359	0.407	0.293	0.278	0.223	1.06	0.834	0.836	0.476	0.64
NCI-H1648	0.753	0.545	0.646	0.391	0.482	1.43	0.891	0.537	0.78	0.279										
NCI-H522	0.596	0.535	0.72	0.621	0.565	0.791	0.695	0.737	0.728	0.57										
IA-LM						0.745	0.81	0.832	0.681	0.61	0.334	0.402	0.341	0.336	0.186	0.77		0.805	0.593	0.548
EPLC-272H	0.441	0.338	0.332	0.311	0.506	0.685	0.499	0.428	0.209	0.161	0.35	0.349	0.311	0.237	0.191	0.973	0.956	0.818	0.808	0.392
A-427	0.18	0.242	0.201	0.224	0.248	0.831	0.604	0.712	0.459	0.29	0.738	0.531	0.797	0.395	0.15	0.98	0.867	1	1.1	0.494
NCI-H647	0.463	0.298	0.266	0.415	0.161	0.422	0.494	0.357	0.399	0.306	0.38	0.342	0.383	0.259	0.208	0.949	0.806	0.686	0.58	0.426
NCI-H1975	0.833	0.685	0.855	0.906	0.755	0.707	0.552	0.522	0.308	0.305	0.287	0.213	0.162	0.155	0.103	0.46	0.342	0.334	0.322	0.229
NCI-H358	0.107	0.0935	0.11	0.0943	0.119	0.749	0.489	0.403	0.286	0.16	0.398	0.298	0.28	0.261	0.249					
PC-3 [JPC-3]	0.995	0.847	0.869	0.833	0.878	1.14	1.06	1.09	0.537	0.704	0.686	0.676	0.727	0.333	0.417	0.751	0.815	0.834	0.393	0.731

Cell Line	relative viability ([1]; first compound 0.2 µM)	relative viability ([1]; first compound 0.6325 µM)	relative viability ([1]; first compound 2 µM)	relative viability ([1]; first compound 6.325 µM)	relative viability ([1]; first compound 20 µM)	relative viability ([2]; first compound 0.01 µM)	relative viability ([2]; first compound 0.03162 µM)	relative viability ([2]; first compound 0.1 µM)	relative viability ([2]; first compound 0.3162 µM)	relative viability ([2]; first compound 1 µM)	relative viability ([3]; first compound 0.01 µM)	relative viability ([3]; first compound 0.03162 µM)	relative viability ([3]; first compound 0.1 µM)	relative viability ([3]; first compound 0.3162 µM)	relative viability ([3]; first compound 1 µM)	relative viability ([4]; first compound 0.01 µM)	relative viability ([4]; first compound 0.03162 µM)	relative viability ([4]; first compound 0.1 µM)	relative viability ([4]; first compound 0.3162 µM)	relative viability ([4]; first compound 1 µM)
NCI-H1792						0.474	0.291	0.279	0.262	0.0641	0.277	0.279	0.223	0.166	0.0856	0.985	0.889	0.905	0.837	0.574
NCI-H596	0.968	0.907	1.11	1.02	1.04	0.825	0.765	0.711	0.727	0.535	0.417	0.338	0.372	0.381	0.274	1.18	0.987	1.08	0.85	0.743
RERF-LC-KJ	0.513	0.452	0.471	0.456	0.403	0.952	0.892	0.759	0.682	0.575	0.49	0.236	0.545	0.42	0.23	1.17	1.16	1.07	1.03	0.761
NCI-H322M	0.502	0.408	0.527	0.498	0.513	0.878	0.689	0.632	0.53	0.344	0.48	0.487	0.406	0.308	0.252	1.3	1.32	1.14	0.55	0.258
NCI-H1944	0.263	0.268	0.264	0.246	0.26	0.43	0.44	0.385	0.361	0.26	0.339	0.343	0.334	0.293	0.258					
EBC-1						0.721	0.64	0.639	0.586	0.432	0.375	0.386	0.233	0.317	0.221	0.48	0.464	0.521	0.482	0.489
SK-MES-1	0.991	0.775	0.933	0.804	0.694	0.582	0.308	0.229	0.208	0.204	0.311	0.301	0.218	0.214	0.141					
NCI-H1563											0.648	0.742	0.626	0.604	0.718	0.994	0.836	0.851	0.69	0.803
SW 900	0.56	0.53	0.496	0.566	0.56	0.89	0.725	0.79	0.716	0.27										
NCI-H1299						0.984	0.906	0.949	0.625	0.664	0.683	0.407	0.223	0.246	0.198	1.04	1.02	1.05	0.969	0.741
A549						0.41	0.367	0.404	0.0957	0.0721	0.476	0.498	0.391	0.235	0.0846					
NCI-H1793	0.316	0.271	0.368	0.377	0.425	0.898	0.755	0.724	0.382	0.268	0.296	0.267	0.447	0.216	0.179					
NCI-H1623	0.418	0.433	0.432	0.47	0.433															
NCI-H1703						0.358	0.416	0.342	0.33	0.273	0.239	0.214	0.218	0.238	0.196	0.253	0.289	0.36	0.295	0.216
NCI-H2170	0.822	0.777	0.675	0.644	0.769	0.58	0.485	0.596	0.438	0.405	0.34	0.283	0.287	0.214	0.239					
NCI-H1395	0.732	0.761	0.72	0.733	0.8	0.478	0.431	0.434	0.49	0.46	0.632	0.574	0.568	0.449	0.507					
NCI-H2342	0.526	0.505	0.6	0.57	0.596	0.377	0.37	0.468	0.395	0.348										
Calu-6						0.6	0.591	0.528	0.442	0.255	0.87	0.594	0.462	0.306	0.209	0.919	0.819	0.834	0.473	0.368
LK-2	0.168	0.192	0.176	0.142	0.155	0.794	0.751	0.769	0.668	0.512	0.528	0.669	0.604	0.531	0.403					

Source: the supplement of paper PMC10307832
